As a reminder, the IC50 is the concentration needed to halve the response being measured. By Ki is commonly meant the equilibrium dissociation constant of an inhibitor or competing ligand from its target.

The values below come from ChEMBL document CHEMBL3091342, “Preparation, in vitro evaluation and molecular modelling of pyridinium-quinolinium/isoquinolinium non-symmetrical bisquaternary cholinesterase inhibitors” (Bioorg Med Chem Lett, 2013).

In one assay the target is Cholinesterase (Homo sapiens, UniProt P06276). Kind of assay: Inhibition of human plasmatic BChE after 5 mins by Ellman's method. Also on record: species or system Plasma.
For assay [1], the target named is T1, Acetylcholinesterase (Homo sapiens, UniProt P22303). The assay is described as follows: Inhibition of human recombinant AChE after 5 mins by Ellman's method.
Assay [2] addresses T1, Acetylcholinesterase. The assay is described as follows: Inhibition of human recombinant AChE by Lineweaver-Burk plot analysis.
For assay [3], the target named is T1, Acetylcholinesterase. Kind of assay: Non competitive inhibition of human recombinant AChE using ATChCl as substrate by Lineweaver-Burk plot analysis.

Chain of Cholinesterase (P06276 whole entry): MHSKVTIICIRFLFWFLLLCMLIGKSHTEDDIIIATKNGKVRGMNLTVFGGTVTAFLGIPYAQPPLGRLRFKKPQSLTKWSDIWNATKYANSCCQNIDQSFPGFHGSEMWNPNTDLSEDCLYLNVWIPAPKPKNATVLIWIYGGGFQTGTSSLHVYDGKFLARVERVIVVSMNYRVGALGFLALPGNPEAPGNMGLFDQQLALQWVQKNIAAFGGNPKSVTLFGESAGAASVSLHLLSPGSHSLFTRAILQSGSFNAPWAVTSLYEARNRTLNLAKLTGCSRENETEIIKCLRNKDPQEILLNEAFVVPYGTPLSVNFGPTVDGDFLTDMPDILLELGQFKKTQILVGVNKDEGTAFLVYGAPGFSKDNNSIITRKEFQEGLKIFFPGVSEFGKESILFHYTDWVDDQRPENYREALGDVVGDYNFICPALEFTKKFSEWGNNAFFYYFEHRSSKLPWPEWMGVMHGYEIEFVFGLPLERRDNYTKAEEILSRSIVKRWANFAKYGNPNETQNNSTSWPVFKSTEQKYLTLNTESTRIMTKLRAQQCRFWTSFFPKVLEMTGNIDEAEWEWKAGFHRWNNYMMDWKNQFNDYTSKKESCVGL
T1 sequence (P22303 whole entry): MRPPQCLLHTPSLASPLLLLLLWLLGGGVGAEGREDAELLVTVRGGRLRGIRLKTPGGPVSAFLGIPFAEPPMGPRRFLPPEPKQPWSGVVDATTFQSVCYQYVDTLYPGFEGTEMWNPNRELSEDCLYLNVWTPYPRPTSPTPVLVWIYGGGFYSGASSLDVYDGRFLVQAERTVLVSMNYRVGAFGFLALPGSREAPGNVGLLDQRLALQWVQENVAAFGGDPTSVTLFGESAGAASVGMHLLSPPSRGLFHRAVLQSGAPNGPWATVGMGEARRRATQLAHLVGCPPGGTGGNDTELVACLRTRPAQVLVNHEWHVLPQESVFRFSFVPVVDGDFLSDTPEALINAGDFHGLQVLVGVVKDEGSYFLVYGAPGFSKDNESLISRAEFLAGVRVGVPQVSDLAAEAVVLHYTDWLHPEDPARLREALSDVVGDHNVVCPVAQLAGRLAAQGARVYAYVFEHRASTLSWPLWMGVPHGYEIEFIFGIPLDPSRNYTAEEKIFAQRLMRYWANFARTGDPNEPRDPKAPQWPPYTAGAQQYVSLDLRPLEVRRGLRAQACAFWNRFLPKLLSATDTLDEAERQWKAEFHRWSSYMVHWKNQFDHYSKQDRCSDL

As for `c1cc[n+](CCCCCCCC[n+]2ccc3ccccc3c2)cc1`, the IC50 against Cholinesterase was 7700 nM; on Acetylcholinesterase [1], 140 nM.

Regarding `c1cc[n+](CCCCCCCCCCCC[n+]2cccc3ccccc32)cc1`, the Ki at Acetylcholinesterase [2] turned out to be 20 nM; at Acetylcholinesterase [3], 10 nM. Besides, the IC50 on Cholinesterase was determined as 680 nM; on Acetylcholinesterase [1] it was 4.7 nM.

Turning to `c1cc[n+](CCCCCCCC[n+]2cccc3ccccc32)cc1`, the IC50 against Cholinesterase was 2000 nM; at Acetylcholinesterase [1], 270 nM.

As to `c1cc[n+](CCCCCCCCCC[n+]2ccc3ccccc3c2)cc1`, the IC50 against Cholinesterase amounted to 370 nM; at Acetylcholinesterase [1], 20 nM.

For the compound `c1cc[n+](CCCCCCCCC[n+]2ccc3ccccc3c2)cc1`, the IC50 against Cholinesterase is 350 nM; on Acetylcholinesterase [1], 40 nM.

Regarding `c1cc[n+](CCCCCCC[n+]2ccc3ccccc3c2)cc1`, the IC50 at Cholinesterase worked out at 1000 nM; at Acetylcholinesterase [1] it was 800 nM.

Take `c1cc[n+](CCCCCCCCCCC[n+]2ccc3ccccc3c2)cc1`: the IC50 against Cholinesterase was determined as 700 nM; at Acetylcholinesterase [1] it was 30 nM.

As to `c1cc[n+](CCCCCCC[n+]2cccc3ccccc32)cc1`, the IC50 on Cholinesterase turned out to be 2200 nM; on Acetylcholinesterase [1], 540 nM.

On to `c1cc[n+](CCCCCCCCCCC[n+]2cccc3ccccc32)cc1`, for which the IC50 at Cholinesterase amounted to 900 nM; at Acetylcholinesterase [1] it was 17 nM.

With `c1cc[n+](CCCCCCCCC[n+]2cccc3ccccc32)cc1`, the results for the IC50 at Cholinesterase and at Acetylcholinesterase [1] were 1700 nM and 120 nM, respectively.
